For this experiment, the target named is Autophagy-related protein 16-1 (Homo sapiens) (UniProt Q676U5). Kind of experiment: blockers of caspase-3 processing of ATG16L1 variant – biochemical, AlphaLISA, recombinant protein, with or without FKBP12, dose response (AID 1963956). The settings on record: recombinant ATG16L1 T300A + caspase-3, AlphaLISA.

Calls of active or inactive are those of the source.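 Rule for the calls: active = caspase-3 cutting of the mutant autophagy protein ATG16L1 lowered by over half at 20 µM; inactive = the rest.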

Chain of Autophagy-related protein 16-1 (Homo sapiens) (Q676U5 whole entry T300A, looked up): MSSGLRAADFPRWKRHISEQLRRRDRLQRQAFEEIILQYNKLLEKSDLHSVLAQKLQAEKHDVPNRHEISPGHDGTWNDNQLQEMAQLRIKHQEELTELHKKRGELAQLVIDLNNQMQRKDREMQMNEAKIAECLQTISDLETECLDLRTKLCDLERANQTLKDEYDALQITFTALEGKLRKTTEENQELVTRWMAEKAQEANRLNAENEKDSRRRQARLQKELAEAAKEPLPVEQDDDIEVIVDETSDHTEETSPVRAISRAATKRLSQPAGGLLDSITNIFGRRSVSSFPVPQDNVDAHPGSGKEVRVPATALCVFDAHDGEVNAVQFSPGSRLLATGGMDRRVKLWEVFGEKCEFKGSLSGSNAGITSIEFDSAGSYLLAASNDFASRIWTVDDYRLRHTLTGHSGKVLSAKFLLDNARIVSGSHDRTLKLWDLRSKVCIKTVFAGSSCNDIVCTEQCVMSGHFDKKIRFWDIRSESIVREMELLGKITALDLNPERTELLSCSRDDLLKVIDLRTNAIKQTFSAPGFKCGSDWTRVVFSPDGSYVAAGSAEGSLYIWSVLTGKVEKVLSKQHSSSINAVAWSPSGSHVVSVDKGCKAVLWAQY

Take `CCC(C)(C)C(=O)C(=O)N1CCCC[C@H]1C(=O)N[C@H](CCc1ccc(OC)cc1)C(=O)N1[C@@H]2CC[C@H]1CC(Nc1nc(NCCc3sc(N)nc3C)nc(NCc3ccnc(CO)c3)n1)C2` (some centres not stated): the result (without FKBP12) was inactive. Take `CCC(C)(C)C(=O)C(=O)N1CCCC[C@H]1C(=O)N[C@H](CCc1ccc(OC)cc1)C(=O)N1[C@@H]2CC[C@H]1CC(Nc1nc(NCCc3sc(N)nc3C)nc(N3CCn4ncnc4C3)n1)C2` (some centres not stated): the EC50 is 10.8 µM (with FKBP12) and 12.1 µM (without FKBP12). Consider `CCC(C)(C)C(=O)C(=O)N1CCCC[C@H]1C(=O)N[C@H](CCc1ccc(OC)cc1)C(=O)N1[C@@H]2CC[C@H]1CC(NC(C)=O)C2` (some centres not stated), for which the result (without FKBP12) was inactive. `CC(=O)N1[C@@H]2CC[C@H]1CC(Nc1nc(NCCc3sc(N)nc3C)nc(N3CCn4ncnc4C3)n1)C2` (some centres not stated): the outcome runs as follows: (with FKBP12) “inactive”; (without FKBP12) “inactive”. With `CCC(C)(C)C(=O)C(=O)N1CCCC[C@H]1C(=O)N[C@H](CCc1ccc(OC)cc1)C(=O)N1[C@@H]2CC[C@H]1CC(Nc1nc(NCCc3sc(N)nc3C)nc(NCCn3cnc4ccccc43)n1)C2` (some centres not stated), the result (without FKBP12) was inactive. For `CCC(C)(C)C(=O)C(=O)N1CCCC[C@H]1C(=O)N[C@H](CCc1ccc(OC)cc1)C(=O)N1[C@@H]2CC[C@H]1CC(Nc1nc(NCCc3ccccc3)nc(N3CCn4ncnc4C3)n1)C2` (some centres not stated), the outcome reads like this: (with FKBP12) “inactive”; (without FKBP12) “inactive”. In the case of `CCC(C)(C)C(=O)C(=O)N1CCCC[C@H]1C(=O)N[C@H](CCc1ccc(OC)cc1)C(=O)N1[C@@H]2CC[C@H]1CC(Nc1nc(NCCc3sc(N)nc3C)nc(N(C)Cc3nnc4n3CCC4)n1)C2` (some centres not stated), the result (without FKBP12) was inactive. Same read-out and setting: under `CCC(C)(C)C(=O)C(=O)N1CCCC[C@H]1C(=O)N[C@H](CCc1ccc(OC)cc1)C(=O)N1CC[C@H](Nc2nc(NCCc3sc(N)nc3C)nc(N(C)Cc3nnc4n3CCC4)n2)C1` stands “inactive”. Turning to `CCC(C)(C)C(=O)C(=O)N1CCCC[C@H]1C(=O)N[C@H](CCc1ccc(OC)cc1)C(=O)N1CC(Nc2nc(NCCc3sc(N)nc3C)nc(NCCn3cnc4ccccc43)n2)C1`, the outcome (without FKBP12) was inactive.

(Values after PubChem BioAssay AID1963956 (Xavier Lab, Infectious Disease and Microbiome Program, …, 2024).)
